Test results as given in PubChem BioAssay (NCI).
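The compound was tested at five concentrations on cells cultured in 96-well plates, with a 48-hour exposure period. GI50 marks 50% less growth. TGI: total growth inhibition.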

What was measured:
Test in all cases: NCI-60 cell line screen, 48 h
MDA-MB-435 = test system: MDA-MB-435
COLO 205 colon = test system: COLO 205 colon
CAKI-1 renal = test system: CAKI-1 renal
UACC-257 melanoma = test system: UACC-257 melanoma
KM12 colon = test system: KM12 colon
MALME-3M melanoma = test system: MALME-3M melanoma
HOP-62 NSCLC = test system: HOP-62 NSCLC
ACHN renal = test system: ACHN renal
CCRF-CEM leukemia = test system: CCRF-CEM leukemia
BT-549 breast = test system: BT-549 breast
NCI-H226 lung = test system: NCI-H226 lung
RPMI-8226 leukemia = test system: RPMI-8226 leukemia
HCT-116 colon = test system: HCT-116 colon
SF-295 CNS = test system: SF-295 CNS
MCF7 breast = test system: MCF7 breast
OVCAR-5 ovarian = test system: OVCAR-5 ovarian
HCC-2998 colon = test system: HCC-2998 colon
OVCAR-4 ovarian = test system: OVCAR-4 ovarian
MDA-MB-231 breast = test system: MDA-MB-231 breast
PC-3 prostate = test system: PC-3 prostate
M14 melanoma = test system: M14 melanoma
K-562 leukemia = test system: K-562 leukemia
NCI-H460 lung = test system: NCI-H460 lung
HT29 colon = test system: HT29 colon
SW-620 colon = test system: SW-620 colon
A498 renal = test system: A498 renal
U251 CNS = test system: U251 CNS
UACC-62 melanoma = test system: UACC-62 melanoma
OVCAR-3 ovarian = test system: OVCAR-3 ovarian
A549 NSCLC = test system: A549 NSCLC
UO-31 renal = test system: UO-31 renal
T-47D breast = test system: T-47D breast
SF-268 CNS = test system: SF-268 CNS
SK-MEL-2 melanoma = test system: SK-MEL-2 melanoma
NCI-H23 lung = test system: NCI-H23 lung
MOLT-4 leukemia = test system: MOLT-4 leukemia
SN12C renal = test system: SN12C renal
SK-OV-3 ovarian = test system: SK-OV-3 ovarian
SNB-75 CNS = test system: SNB-75 CNS
EKVX NSCLC = test system: EKVX NSCLC
HCT-15 colon = test system: HCT-15 colon
NCI/ADR-RES ovarian = test system: NCI/ADR-RES ovarian
SK-MEL-28 melanoma = test system: SK-MEL-28 melanoma
SNB-19 CNS = test system: SNB-19 CNS
786-0 renal = test system: 786-0 renal
RXF 393 renal = test system: RXF 393 renal
DU-145 prostate = test system: DU-145 prostate
HS 578T breast = test system: HS 578T breast
SF-539 CNS = test system: SF-539 CNS
OVCAR-8 ovarian = test system: OVCAR-8 ovarian
HOP-92 NSCLC = test system: HOP-92 NSCLC
TK-10 renal = test system: TK-10 renal
SK-MEL-5 melanoma = test system: SK-MEL-5 melanoma
LOX IMVI melanoma = test system: LOX IMVI melanoma
HL-60(TB) leukemia = test system: HL-60(TB) leukemia
NCI-H522 lung = test system: NCI-H522 lung
IGROV1 ovarian = test system: IGROV1 ovarian

With Cc1n[nH]c(=O)n1/N=C/c1ccco1 the TGI (MDA-MB-435) was over 100 µM, the TGI (COLO 205 colon) was over 100 µM and the TGI (CAKI-1 renal) was over 100 µM. The TGI (UACC-257 melanoma) was over 100 µM, the TGI (KM12 colon) was over 100 µM and the TGI (MALME-3M melanoma) was over 100 µM. For the same compound, the TGI (HOP-62 NSCLC) was over 100 µM, the TGI (ACHN renal) was over 100 µM and the TGI (CCRF-CEM leukemia) was over 100 µM. For the same compound, the TGI (BT-549 breast) was over 100 µM, the TGI (NCI-H226 lung) was over 100 µM and the TGI (RPMI-8226 leukemia) was over 100 µM. The TGI (HCT-116 colon) was over 100 µM, the TGI (SF-295 CNS) was over 100 µM and the TGI (MCF7 breast) was over 100 µM. The TGI (OVCAR-5 ovarian) was over 100 µM, the TGI (HCC-2998 colon) was over 100 µM and the TGI (OVCAR-4 ovarian) was over 100 µM. For the same compound, the TGI (MDA-MB-231 breast) was over 100 µM, the TGI (PC-3 prostate) was over 100 µM and the TGI (M14 melanoma) was over 100 µM. It also gave a TGI (K-562 leukemia) of over 100 µM, a TGI (NCI-H460 lung) of over 100 µM and a TGI (HT29 colon) of over 100 µM. The TGI (SW-620 colon) was over 100 µM, the TGI (A498 renal) was over 100 µM and the TGI (U251 CNS) was over 100 µM. The TGI (UACC-62 melanoma) was over 100 µM, the TGI (OVCAR-3 ovarian) was over 100 µM and the TGI (A549 NSCLC) was over 100 µM. The TGI (UO-31 renal) was over 100 µM, the TGI (T-47D breast) was over 100 µM and the TGI (SF-268 CNS) was over 100 µM. The TGI (SK-MEL-2 melanoma) was over 100 µM, the TGI (NCI-H23 lung) was over 100 µM and the TGI (MOLT-4 leukemia) was over 100 µM. It also gave a TGI (SN12C renal) of over 100 µM, a TGI (SK-OV-3 ovarian) of over 100 µM and a TGI (SNB-75 CNS) of over 100 µM. It also gave a TGI (EKVX NSCLC) of over 100 µM, a TGI (HCT-15 colon) of over 100 µM and a TGI (NCI/ADR-RES ovarian) of over 100 µM. For the same compound, the TGI (SK-MEL-28 melanoma) was over 100 µM, the TGI (SNB-19 CNS) was over 100 µM and the TGI (786-0 renal) was over 100 µM. For the same compound, the TGI (RXF 393 renal) was over 100 µM, the TGI (DU-145 prostate) was over 100 µM and the TGI (HS 578T breast) was over 100 µM. It also gave a TGI (SF-539 CNS) of over 100 µM and a TGI (OVCAR-8 ovarian) of over 100 µM.

With O=C1NC(=Nc2ccc(O)cc2)S/C1=C\c1cccs1 the GI50 (COLO 205 colon) was over 100 µM, the TGI (COLO 205 colon) was over 100 µM and the GI50 (UACC-257 melanoma) was over 100 µM. For the same compound, the TGI (UACC-257 melanoma) was over 100 µM, the GI50 (MALME-3M melanoma) was over 100 µM and the TGI (MALME-3M melanoma) was over 100 µM. The GI50 (HOP-92 NSCLC) was over 100 µM, the TGI (HOP-92 NSCLC) was over 100 µM and the GI50 (OVCAR-4 ovarian) was over 100 µM. The TGI (OVCAR-4 ovarian) was over 100 µM, the GI50 (MDA-MB-231 breast) was over 100 µM and the TGI (MDA-MB-231 breast) was over 100 µM. It also gave a GI50 (HT29 colon) of over 100 µM, a TGI (HT29 colon) of over 100 µM and a GI50 (SK-MEL-2 melanoma) of over 100 µM. The TGI (SK-MEL-2 melanoma) was over 100 µM, the GI50 (NCI-H23 lung) was over 100 µM and the TGI (NCI-H23 lung) was over 100 µM. The GI50 (SK-OV-3 ovarian) was over 100 µM, the TGI (SK-OV-3 ovarian) was over 100 µM and the GI50 (EKVX NSCLC) was over 100 µM. It also gave a TGI (EKVX NSCLC) of over 100 µM, a GI50 (NCI/ADR-RES ovarian) of over 100 µM and a TGI (NCI/ADR-RES ovarian) of over 100 µM. For the same compound, the GI50 (TK-10 renal) was over 100 µM, the TGI (TK-10 renal) was over 100 µM and the GI50 (SK-MEL-28 melanoma) was over 100 µM. The TGI (SK-MEL-28 melanoma) was over 100 µM.

Compound COC(=O)C1c2cc3c(c(O)c2CCC1(C)O)C(=O)c1c(O)cc2c(c1C3=O)OC1OC2(C)C(O)C(N(C)C)C1O (stereo not drawn) has a TGI (MDA-MB-435) of 2.17 µM, a TGI (COLO 205 colon) of 1.73 µM and a TGI (SK-MEL-5 melanoma) of 1.73 µM. For the same compound, the TGI (UACC-257 melanoma) was 0.739 µM, the TGI (LOX IMVI melanoma) was 1.4 µM and the TGI (KM12 colon) was 1.52 µM. The TGI (MALME-3M melanoma) was 1.17 µM, the TGI (HOP-62 NSCLC) was 1.58 µM and the TGI (ACHN renal) was 1.17 µM. For the same compound, the TGI (NCI-H226 lung) was 0.45 µM, the TGI (HCT-116 colon) was 24.2 µM and the TGI (SF-295 CNS) was 1.87 µM. For the same compound, the TGI (MCF7 breast) was 2.5 µM, the TGI (OVCAR-5 ovarian) was 1.03 µM and the TGI (OVCAR-4 ovarian) was 1.45 µM. It also gave a TGI (MDA-MB-231 breast) of 1.69 µM, a TGI (PC-3 prostate) of 1.79 µM and a TGI (HL-60(TB) leukemia) of 2.8 µM. The TGI (M14 melanoma) was 5.33 µM, the TGI (K-562 leukemia) was 1.03 µM and the TGI (NCI-H460 lung) was 2.11 µM. The TGI (HT29 colon) was 1.29 µM, the TGI (SW-620 colon) was 1.08 µM and the TGI (U251 CNS) was 1.71 µM. For the same compound, the TGI (UACC-62 melanoma) was 1.91 µM, the TGI (OVCAR-3 ovarian) was 1.62 µM and the TGI (A549 NSCLC) was 0.916 µM. The TGI (UO-31 renal) was 4.62 µM, the TGI (T-47D breast) was 1.61 µM and the TGI (NCI-H522 lung) was 2.81 µM. The TGI (SF-268 CNS) was 11.1 µM, the TGI (SK-MEL-2 melanoma) was 18.8 µM and the TGI (NCI-H23 lung) was 1.99 µM. The TGI (MOLT-4 leukemia) was 0.357 µM, the TGI (SN12C renal) was 3.84 µM and the TGI (SK-OV-3 ovarian) was 15 µM. For the same compound, the TGI (SNB-75 CNS) was 1.37 µM, the TGI (EKVX NSCLC) was 0.774 µM and the TGI (HCT-15 colon) was 1.7 µM. The TGI (NCI/ADR-RES ovarian) was 3.54 µM, the TGI (TK-10 renal) was 1.66 µM and the TGI (SK-MEL-28 melanoma) was 15.7 µM. For the same compound, the TGI (SNB-19 CNS) was 1.39 µM, the TGI (786-0 renal) was 2.63 µM and the TGI (RXF 393 renal) was 1.55 µM. The TGI (DU-145 prostate) was 0.561 µM, the TGI (HS 578T breast) was 3.77 µM and the TGI (SF-539 CNS) was 3.88 µM. For the same compound, the TGI (IGROV1 ovarian) was 2.35 µM and the TGI (OVCAR-8 ovarian) was 0.591 µM.
